According to patent publication US11541028B2, “Peptide pharmaceuticals for treatment of NASH and other disorders” (Mederis Diabetes LLC, priority 2018, dated 2023):
Bridge positions count the residues as written; N and C are the ends. Square brackets hold non-standard residues; d marks the D form. Peptide text beside a SMILES is read from it. * marks the point of attachment. Melibiouronoyl(1β-O-dodecyl) = CCCCCCCCCCCCO[C@@H]1O[C@H](CO[C@H]2O[C@H](C(=O)*)[C@H](O)[C@H](O)[C@H]2O)[C@@H](O)[C@H](O)[C@H]1O; Aib = CC(C)(N)C(=O)O

Key:
human GLP-1 receptor = target: T1, human GLP-1 receptor (Homo sapiens, UniProt P43220); assay: DiscoveRx LeadHunter cellular assay, cAMP stimulation, GLP-1 receptor in CHO cells; assay type: cell-based; details: human GLP-1 receptor in CHO cells (DiscoveRx); read-out: EC50 cAMP GLP-1 R
T1 construct: host or cells: CHO cells

human glucagon receptor = target: T2, human glucagon receptor (Homo sapiens, UniProt P47871); assay: DiscoveRx LeadHunter cellular assay, cAMP stimulation, glucagon receptor in CHO cells; assay type: cell-based
T2 construct: host or cells: CHO cells
T2 sequence (P47871 26-477): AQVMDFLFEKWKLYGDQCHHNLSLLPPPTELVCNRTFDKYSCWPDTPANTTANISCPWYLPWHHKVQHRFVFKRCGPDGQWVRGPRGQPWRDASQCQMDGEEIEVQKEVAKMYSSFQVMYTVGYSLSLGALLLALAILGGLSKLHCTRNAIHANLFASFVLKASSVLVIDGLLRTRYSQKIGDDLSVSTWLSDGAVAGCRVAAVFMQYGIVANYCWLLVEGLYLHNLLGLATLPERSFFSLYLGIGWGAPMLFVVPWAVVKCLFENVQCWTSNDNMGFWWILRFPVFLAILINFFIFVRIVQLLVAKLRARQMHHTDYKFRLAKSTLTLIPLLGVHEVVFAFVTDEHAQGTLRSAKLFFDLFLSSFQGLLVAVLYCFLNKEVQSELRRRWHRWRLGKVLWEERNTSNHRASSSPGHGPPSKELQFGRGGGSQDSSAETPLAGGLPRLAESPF

T1 sequence (P43220 24-463): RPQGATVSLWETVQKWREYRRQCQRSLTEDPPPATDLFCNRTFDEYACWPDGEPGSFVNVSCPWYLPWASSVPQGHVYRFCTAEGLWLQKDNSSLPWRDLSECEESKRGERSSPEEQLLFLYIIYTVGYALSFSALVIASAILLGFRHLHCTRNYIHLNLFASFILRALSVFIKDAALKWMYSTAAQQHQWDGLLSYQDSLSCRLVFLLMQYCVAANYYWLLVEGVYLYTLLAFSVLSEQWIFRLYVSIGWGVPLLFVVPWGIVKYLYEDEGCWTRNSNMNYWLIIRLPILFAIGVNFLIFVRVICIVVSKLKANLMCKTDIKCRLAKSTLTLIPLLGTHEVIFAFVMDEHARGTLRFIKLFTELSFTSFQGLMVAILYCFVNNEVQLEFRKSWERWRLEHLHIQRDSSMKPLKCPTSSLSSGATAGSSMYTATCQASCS

Row | EC50 (human GLP-1 receptor) | EC50 (human glucagon receptor) | SMILES
1 | 0.028 nM | 0.062 nM | CCCCCCCCCCCCO[C@@H]1O[C@H](C(=O)N[C@@H](CCC(=O)N[C@@H](CCC(=O)NCCCC[C@H](NC(=O)[C@@H](NC(=O)[C@H](Cc2ccccc2)NC(=O)[C@H](CCC(=O)O)NC(=O)[C@@H]2CCCCNC(=O)CC[C@H](NC(=O)[C@H](CC(=O)O)NC(=O)[C@H](CC(C)C)NC(=O)[C@H](Cc3ccc(O)cc3)NC(=O)[C@H](CCCCN)NC(=O)[C@H](CO)NC(=O)[C@H](Cc3ccc(O)cc3)NC(=O)[C@H](CC(=O)O)NC(=O)[C@H](CO)NC(=O)[C@@H](NC(=O)[C@H](Cc3ccccc3)NC(=O)[C@@H](NC(=O)CNC(=O)[C@H](CCC(N)=O)NC(=O)C(C)(C)NC(=O)[C@@H](N)Cc3c[nH]cn3)[C@@H](C)O)[C@@H](C)O)C(=O)N[C@@H](CCC(N)=O)C(=O)N[C@@H](C)C(=O)N[C@@H](C)C(=O)N2)[C@@H](C)CC)C(=O)N[C@@H](Cc2c[nH]c3ccccc23)C(=O)N[C@@H](CC(C)C)C(=O)N[C@@H](CC(C)C)C(=O)N[C@@H](CCC(N)=O)C(=O)N[C@H](C(N)=O)[C@@H](C)O)C(=O)O)C(=O)O)[C@@H](O)[C@H](O)[C@H]1O [EU-A1723]
2 | 0.011 nM | 0.068 nM | CCCCCCCCCCCCO[C@@H]1O[C@H](CO[C@H]2O[C@H](C(=O)NCCCC[C@H](NC(=O)[C@H](CC(=O)O)NC(=O)[C@H](CO)NC(=O)[C@@H](NC(=O)[C@H](Cc3ccccc3)NC(=O)[C@@H](NC(=O)CNC(=O)[C@H](CCC(N)=O)NC(=O)C(C)(C)NC(=O)[C@@H](N)Cc3c[nH]cn3)[C@@H](C)O)[C@@H](C)O)C(=O)N[C@@H](CO)C(=O)N[C@@H](CCCCN)C(=O)N[C@@H](Cc3ccc(O)cc3)C(=O)N[C@@H](CC(C)C)C(=O)N[C@@H](CC(=O)O)C(=O)N[C@H]3CCC(=O)NCCCC[C@@H](C(=O)N[C@@H](CCC(=O)O)C(=O)N[C@@H](Cc4ccccc4)C(=O)N[C@H](C(=O)N[C@@H](CCC(N)=O)C(=O)N[C@@H](Cc4c[nH]c5ccccc45)C(=O)N[C@@H](CC(C)C)C(=O)N[C@@H](CC(C)C)C(=O)N[C@@H](CCC(N)=O)C(=O)N[C@H](C(N)=O)[C@@H](C)O)[C@@H](C)CC)NC(=O)[C@H](C)NC(=O)[C@H](C)NC(=O)[C@H](CCC(N)=O)NC3=O)[C@H](O)[C@H](O)[C@H]2O)[C@@H](O)[C@H](O)[C@H]1O [EU-A1594] (H-H[Aib]QGTFTSDK(Melibiouronoyl(1β-O-dodecyl))SKYLDEQAAKEFIQWLLQT-NH2; lactam 16-20)
3 | 0.079 nM | 0.204 nM | CCCCCCCCCCCCO[C@@H]1O[C@H](CO[C@H]2O[C@H](C(=O)N[C@@H](CCC(=O)NCCCC[C@H](NC(=O)[C@@H](NC(=O)[C@H](Cc3ccccc3)NC(=O)[C@H](CCC(=O)O)NC(=O)[C@@H]3CCCCNC(=O)CC[C@H](NC(=O)[C@H](CC(=O)O)NC(=O)[C@H](CC(C)C)NC(=O)[C@H](Cc4ccc(O)cc4)NC(=O)[C@H](CCCCN)NC(=O)[C@H](CO)NC(=O)[C@H](Cc4ccc(O)cc4)NC(=O)[C@H](CC(=O)O)NC(=O)[C@H](CO)NC(=O)[C@@H](NC(=O)[C@H](Cc4ccccc4)NC(=O)[C@@H](NC(=O)CNC(=O)[C@H](CCC(N)=O)NC(=O)C(C)(C)NC(=O)[C@@H](N)Cc4c[nH]cn4)[C@@H](C)O)[C@@H](C)O)C(=O)N[C@@H](CCC(N)=O)C(=O)N[C@@H](C)C(=O)N[C@@H](C)C(=O)N3)[C@@H](C)CC)C(=O)N[C@@H](Cc3c[nH]c4ccccc34)C(=O)N[C@@H](CC(C)C)C(=O)N[C@@H](CC(C)C)C(=O)N[C@@H](CCC(N)=O)C(=O)N[C@H](C(=O)O)[C@@H](C)O)C(=O)O)[C@H](O)[C@H](O)[C@H]2O)[C@@H](O)[C@H](O)[C@H]1O [EU-A1616]
4 | 0.026 nM | 0.065 nM | CCCCCCCCCCO[C@@H]1O[C@H](C(=O)NCCCC[C@H](N)C(=O)NCCCC[C@H](NC(=O)[C@@H](NC(=O)[C@H](Cc2ccccc2)NC(=O)[C@H](CCC(=O)O)NC(=O)[C@@H]2CCCCNC(=O)CC[C@H](NC(=O)[C@H](CC(=O)O)NC(=O)[C@H](CC(C)C)NC(=O)[C@H](Cc3ccc(O)cc3)NC(=O)[C@H](CCCCN)NC(=O)[C@H](CO)NC(=O)[C@H](Cc3ccc(O)cc3)NC(=O)[C@H](CC(=O)O)NC(=O)[C@H](CO)NC(=O)[C@@H](NC(=O)[C@H](Cc3ccccc3)NC(=O)[C@@H](NC(=O)CNC(=O)[C@H](CCC(N)=O)NC(=O)C(C)(C)NC(=O)[C@@H](N)Cc3c[nH]cn3)[C@@H](C)O)[C@@H](C)O)C(=O)N[C@@H](CCC(N)=O)C(=O)N[C@@H](C)C(=O)N[C@@H](C)C(=O)N2)[C@@H](C)CC)C(=O)N[C@@H](Cc2c[nH]c3ccccc23)C(=O)N[C@@H](CC(C)C)C(=O)N[C@@H](CC(C)C)C(=O)N[C@@H](CCC(N)=O)C(=O)N[C@H](C(N)=O)[C@@H](C)O)[C@@H](O)[C@H](O)[C@H]1O [EU-A1710]
5 | 0.035 nM | 0.162 nM | CCCCCCCCCCCCCCO[C@@H]1O[C@H](CO[C@H]2O[C@H](C(=O)NCCCC[C@H](N)C(=O)NCCCC[C@H](NC(=O)[C@@H](NC(=O)[C@H](Cc3ccccc3)NC(=O)[C@H](CCC(=O)O)NC(=O)[C@@H]3CCCCNC(=O)CC[C@H](NC(=O)[C@H](CC(=O)O)NC(=O)[C@H](CC(C)C)NC(=O)[C@H](Cc4ccc(O)cc4)NC(=O)[C@H](CCCCN)NC(=O)[C@H](CO)NC(=O)[C@H](Cc4ccc(O)cc4)NC(=O)[C@H](CC(=O)O)NC(=O)[C@H](CO)NC(=O)[C@@H](NC(=O)[C@H](Cc4ccccc4)NC(=O)[C@@H](NC(=O)CNC(=O)[C@H](CCC(N)=O)NC(=O)C(C)(C)NC(=O)[C@@H](N)Cc4c[nH]cn4)[C@@H](C)O)[C@@H](C)O)C(=O)N[C@@H](CCC(N)=O)C(=O)N[C@@H](C)C(=O)N[C@@H](C)C(=O)N3)[C@@H](C)CC)C(=O)N[C@@H](Cc3c[nH]c4ccccc34)C(=O)N[C@@H](CC(C)C)C(=O)N[C@@H](CC(C)C)C(=O)N[C@@H](CCC(N)=O)C(=O)N[C@H](C(N)=O)[C@@H](C)O)[C@H](O)[C@H](O)[C@H]2O)[C@@H](O)[C@H](O)[C@H]1O [EU-A1602]
6 | 0.006 nM | 0.012 nM | CCCCCCCCCCO[C@@H]1O[C@H](C(=O)N[C@@H](CCC(=O)N[C@@H](CCC(=O)NCCCC[C@H](NC(=O)[C@@H](NC(=O)[C@H](Cc2ccccc2)NC(=O)[C@H](CCC(=O)O)NC(=O)[C@@H]2CCCCNC(=O)CC[C@H](NC(=O)[C@H](CC(=O)O)NC(=O)[C@H](CC(C)C)NC(=O)[C@H](Cc3ccc(O)cc3)NC(=O)[C@H](CCCCN)NC(=O)[C@H](CO)NC(=O)[C@H](Cc3ccc(O)cc3)NC(=O)[C@H](CC(=O)O)NC(=O)[C@H](CO)NC(=O)[C@@H](NC(=O)[C@H](Cc3ccccc3)NC(=O)[C@@H](NC(=O)CNC(=O)[C@H](CCC(N)=O)NC(=O)C(C)(C)NC(=O)[C@@H](N)Cc3c[nH]cn3)[C@@H](C)O)[C@@H](C)O)C(=O)N[C@@H](CCC(N)=O)C(=O)N[C@@H](C)C(=O)N[C@@H](C)C(=O)N2)[C@@H](C)CC)C(=O)N[C@@H](Cc2c[nH]c3ccccc23)C(=O)N[C@@H](CC(C)C)C(=O)N[C@@H](CC(C)C)C(=O)N[C@@H](CCC(N)=O)C(=O)N[C@H](C(N)=O)[C@@H](C)O)C(=O)O)C(=O)O)[C@@H](O)[C@H](O)[C@H]1O [EU-A1722]
